Data published in patent US5464617A, “β-lactam compounds” (Hoffmann-La Roche Inc., priority 1994, dated 1995).
In brackets after ≈: the same amount, converted by molar mass. Where a name gives a salt, the structure may show the parent alone.

What was measured:
[1] = tested on: E. coli 1346; experiment: Antibacterial activity of the products per se, serial dilution method in liquid medium (Test E); format: cell-based; details: Table 4; test E, product per se
Source text: The antibacterial activity of the products per se is illustrated on the basis of Table 3 hereinafter, the minimum inhibitory concentration […] in vitro against E. coli 1346 being determined using the serial dilution method in liquid medium: […]

[2] = tested on: Citrobacter freundii 1982; experiment: MIC in vitro of a 1:4 combination of ceftriaxone with a compound of formula I (Test D); format: cell-based; details: Table 4; test D, 1:4 combination of ceftriaxone with the compound
Description: The minimum inhibitory concentration in vitro ([…]) of a 1:4 combination of ceftriaxone with a compound of formula I against Citrobacter freundii 1982 was measured and compiled in Table 2 hereinafter.

MIC E. coli 1346 (E) [1]	MIC C. freundii 1982 (D) [2]	Compound
16 µg/mL	4 µg/mL	CC(=O)N1C[C@H]2CC(SCC(N)=O)=C(C(=O)O)N3C(=O)[C@@H]1[C@@H]23 [3(ak), (1 aS,3aR,6bR)-2-Acetyl-5-carbamoylmethylsulphanyl-1-oxo-1a,2,3,3a,4,6b-hexahydro-1H-2,6a-diazacyclobut[cd]indene-6-carboxylic acid sodium salt]
8 µg/mL	0.25 µg/mL	NC(=O)OCC1=C(C(=O)O)N2C(=O)[C@@H]3[C@H]2[C@H](C1)CN3C(=O)CSc1ccncc1 [58(g), (1aS,3aR,6bR)-5-Carbamoyloxymethyl-1-oxo-2-pyridin-4-ylsulphanylacetyl-1a,2,3,3a,4,6b-hexahydro-1H-2,6a-diazacyclobut[cd]indene-6-carboxylic acid sodium salt]
> 32 µg/mL	32 µg/mL	O=C(Cn1nnnc1SCC1=C(C(=O)O)N2C(=O)[C@H]3NC[C@@H](O1)[C@H]32)NCCc1ccccc1 [29(h), (1aS,3aR,6bS)-1-Oxo-5-(1-(phenylethyl-carbamoylmethyl)-1H-tetrazol-5-ylsulphanylmethyl)-1,1a,2,3,3a,6b-hexahydro-4-oxa-2,6a-diazacydobut[cd]indene-6-carboxylic acid]
2 µg/mL	0.5 µg/mL	NC(=O)Cn1nnnc1SCC1=C(C(=O)O)N2C(=O)[C@H]3NC[C@@H](C1)[C@H]32 [Example 69, (1aS,3aR,6 bR)-5-(1-Carbamoylmethyl-1H-tetrazol-5-ylsulphanylmethyl)-1-oxo-1a,2,3,3a,4,61>hexahydro-1H-2,6a-diazacyclobut[cd]indene-6-carboxylic acid trifluoroacetate]
32 µg/mL (≈ 83.9 µM)	8 µg/mL	CNC(=O)Cn1nnnc1SCC1=C(C(=O)O)N2C(=O)[C@H]3NC[C@@H](O1)[C@H]32 [Example 29(k), (1aS,3aR,6bS)-5-(1-Methylcarbamoylmethyl-1H-tetrazol-5-ylsulphanylmethyl)-1-oxo-1,1a,2,3,3a,6 b-hexahydro-4-oxa-2,6a-diazacyclobut[cd]indene-6-carboxylic acid]
32 µg/mL	0.25 µg/mL	Cn1nc(O)c(=O)nc1SCC1=C(C(=O)O)N2C(=O)[C@@H]3[C@H]2[C@H](C1)CN3C(=O)Nc1ccc(O)cc1 [Example 54, (1aS,3aR,6bR)-5-(2,5-Dihydro-6-hydroxy-2-methyl-5-oxo-1,2,4-triazin-3-ylsulphanylmethyl)-2-(4-hydroxy-phenylcarbamoyl)-1-oxo-1a,2,3,3a,4,6b-hexahydro-1H-2,6a-diazacydobut[cd]indene-6-carboxylic acid sodium salt (1:2)]
0.5 µg/mL	1 µg/mL	O=C(Nc1ccc(O)cc1)OCC1=C(C(=O)O)N2C(=O)[C@@H]3[C@H]2[C@H](C1)CN3C(=O)C(F)(F)F [90(b), (1aS,3aR,6bR)-5-(4-Hydroxy-phenylcarbamoyloxymethyl)-2-trifluoroacetyl-1-oxo-1a,2,3,3a,4,6b-hexahydro-1H-2,6a-diazacyclobut[cd]indene-6-carboxylic acid sodium salt]
2 µg/mL (≈ 3.97 µM)	1 µg/mL	O=C([O-])C1=C(CSc2cc[n+](Cc3ccccc3)cc2)C[C@@H]2CN(C(=O)C(F)(F)F)[C@@H]3C(=O)N1[C@H]23 [52(d), (1aS,3aR,6bR)-5-(1-Benzyl-pyridin-4-yliosulphanylmethyl)-1-oxo-2-trifluoroacetyl-1a,2,3,3a,4,6b-hexahydro-1H-2,6a-diazacyclobut[cd]indene-6-carboxylate]

Compound	MIC E. coli 1346 (E) [1]	MIC C. freundii 1982 (D) [2]
[N-]=[N+]=NCC1=C(C(=O)O)N2C(=O)[C@H]3NC[C@@H](C1)[C@H]32 [Example 81, (1aS,3aR,6bR)-5-Azidomethyl-1-oxo-1a,2,3,3a,4,6b-hexahydro-1H-2,6a-diazacyclobut[cd]indene-6-carboxylic acid trifluoroacetate]	1 µg/mL	1 µg/mL
